What was measured:
Assay in all cases: relative viability (nuclei count vs DMSO), 5 days (fraction); higher = more cells survive
[1] = compound: CNC(=O)c1cc(Oc2ccc(NC(=O)Nc3ccc(Cl)c(C(F)(F)F)c3)cc2)ccn1 [Sorafenib] + Nc1ncn([C@H]2C[C@H](O)[C@@H](CO)O2)c(=O)n1 [Decitabine] (partner 2 µM)
Outline: (§1)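 Nuclei were stained with Hoechst during a one-step fixation (final 0.05% Triton X-100, 1% formaldehyde, 1 ug/ml Hoechst) carried out 5 days after dosing, then counted on 4× images. The cells, lung cancer lines in 1536-well plates, had been dosed by pin tool the day after seeding with one drug alone or a fixed anchor-drug dose plus five library-drug doses (not always all listed) in √10 steps. Relative viability is the nuclei count in treated wells divided by that in vehicle wells, and each value is the median of duplicate plates.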

[2] = compound: CNC(=O)c1cc(Oc2ccc(NC(=O)Nc3ccc(Cl)c(C(F)(F)F)c3)cc2)ccn1 [Sorafenib] + Cc1nc(NC(=O)N2CCC[C@H]2C(N)=O)sc1-c1ccnc(C(C)(C)C(F)(F)F)c1 [Alpelisib] (partner 2 µM)
Outline: as §1

[3] = compound: CNC(=O)c1cc(Oc2ccc(NC(=O)Nc3ccc(Cl)c(C(F)(F)F)c3)cc2)ccn1 [Sorafenib] + CC1(C)CCC(c2ccc(Cl)cc2)=C(CN2CCN(c3ccc(C(=O)NS(=O)(=O)c4ccc(N[C@H](CCN5CCOCC5)CSc5ccccc5)c(S(=O)(=O)C(F)(F)F)c4)cc3)CC2)C1 [Navitoclax] (partner 0.5 µM)
Outline: as §1

[4] = compound: CNC(=O)c1cc(Oc2ccc(NC(=O)Nc3ccc(Cl)c(C(F)(F)F)c3)cc2)ccn1 [Sorafenib] + CC(C)C[C@H](NC(=O)[C@H](Cc1ccccc1)NC(=O)c1cnccn1)B(O)O [Bortezomib] (partner 0.002 µM)
Outline: as §1

[5] = compound: CNC(=O)c1cc(Oc2ccc(NC(=O)Nc3ccc(Cl)c(C(F)(F)F)c3)cc2)ccn1 [Sorafenib] + Cc1cc(Nc2cc(N3CCN(C)CC3)nc(Sc3ccc(NC(=O)C4CC4)cc3)n2)n[nH]1 [Tozasertib] (partner 0.1 µM)
Outline: as §1

Row | Cell Line | relative viability ([1]; first compound 0.08 µM) | relative viability ([1]; first compound 0.253 µM) | relative viability ([1]; first compound 2.53 µM) | relative viability ([1]; first compound 8 µM) | relative viability ([2]; first compound 0.08 µM) | relative viability ([2]; first compound 2.53 µM) | relative viability ([2]; first compound 8 µM) | relative viability ([3]; first compound 0.08 µM) | relative viability ([3]; first compound 2.53 µM) | relative viability ([3]; first compound 8 µM) | relative viability ([4]; first compound 0.08 µM) | relative viability ([4]; first compound 0.253 µM) | relative viability ([4]; first compound 2.53 µM) | relative viability ([4]; first compound 8 µM) | relative viability ([5]; first compound 0.08 µM) | relative viability ([5]; first compound 0.253 µM) | relative viability ([5]; first compound 2.53 µM) | relative viability ([5]; first compound 8 µM) | relative viability ([2]; first compound 0.253 µM) | relative viability ([3]; first compound 0.253 µM)
1 | SK-LU-1 | 0.605 | 0.564 | 0.578 | 0.396 | 0.987 | 0.868 | 0.242 | 0.926 | 0.729 | 0.207 | 1.16 | 1.07 | 1.11 | 0.735 | 0.346 | 0.347 | 0.325 | 0.211 | – | –
2 | SW 1573 | 0.57 | 0.511 | 0.408 | 0.182 | 0.879 | 0.805 | 0.578 | 1.1 | 0.983 | 0.689 | 1.22 | 1.05 | 0.989 | 0.286 | 0.194 | 0.205 | 0.174 | 0.119 | 0.757 | 0.947
3 | UMC-11 | 0.596 | 0.57 | 0.535 | 0.249 | 0.999 | 0.968 | 0.529 | 0.32 | 0.34 | 0.152 | 0.609 | 0.627 | 0.702 | 0.231 | 0.209 | 0.195 | 0.202 | 0.184 | 0.959 | –

Reference: the supplement of paper PMC10307832
